Values joined by “and” are separate entries in the source; they are usually repeats but may differ in a detail not shown here. Identical values can stand only once. Inconclusive results and toxic doses are left out.
System: CD2F1 mice, L1210 leukemia ip, survival T/C
Assay: NCI In Vivo Anticancer Drug Screen. Data for tumor model L1210 Leukemia (intraperitoneal) in CD2F1 (CDF1) mice
Conditions: endpoint: mean survival time, higher = longer survival
Procedure, shortened: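 Transplantable tumor in mice; compound-treated vs vehicle-treated groups. Read-out = treated/control ratio of the measured endpoint.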

[1] = dose: 12.5 mg/kg/injection, schedule: Q04DX003 (ip), vehicle: saline with Tween-80
[2] = dose: 50.0 mg/kg/injection, schedule: Q04DX003 (ip), vehicle: saline
[3] = dose: 100.0 mg/kg/injection, schedule: Q04DX003 (ip), vehicle: saline
[4] = dose: 200.0 mg/kg/injection, schedule: Q04DX003 (ip), vehicle: saline
[5] = dose: 50.0 mg/kg/injection, schedule: Q04DX003 (ip), vehicle: saline with Tween-80
[6] = dose: 100.0 mg/kg/injection, schedule: Q04DX003 (ip), vehicle: saline with Tween-80
[7] = dose: 200.0 mg/kg/injection, schedule: Q04DX003 (ip), vehicle: saline with Tween-80
[8] = dose: 100.0 mg/kg/injection, schedule: Q01DX009 (ip), vehicle: saline with Tween-80
[9] = dose: 200.0 mg/kg/injection, schedule: Q01DX009 (ip), vehicle: saline with Tween-80
[10] = dose: 400.0 mg/kg/injection, schedule: Q01DX009 (ip), vehicle: saline with Tween-80
[11] = dose: 400.0 mg/kg/injection, schedule: Q04DX003 (ip), vehicle: saline with Tween-80

`[NH-]C(CO)C(=O)O.[NH-]C(CO)C(=O)O.[Pt+2]` (stereo unspecified) was tested, and the T/C (dose: 0.78 mg/kg/injection, schedule: Q04DX003 (ip), vehicle: saline with Tween-80) was 100 % of control, the T/C (dose: 1.56 mg/kg/injection, schedule: Q04DX003 (ip), vehicle: saline with Tween-80) was 92 % of control and the T/C (dose: 3.13 mg/kg/injection, schedule: Q04DX003 (ip), vehicle: saline with Tween-80) was 95 % of control. The T/C (dose: 3.13 mg/kg/injection, schedule: Q04DX003 (ip), vehicle: water) was 100 % of control, the T/C (dose: 6.25 mg/kg/injection, schedule: Q04DX003 (ip), vehicle: saline with Tween-80) was 97 % of control and the T/C (dose: 6.25 mg/kg/injection, schedule: Q04DX003 (ip), vehicle: saline) was 102 % of control. The T/C (dose: 6.25 mg/kg/injection, schedule: Q04DX003 (ip), vehicle: water) was 103 % of control, the T/C [1] was 94 % of control and the T/C (dose: 12.5 mg/kg/injection, schedule: Q04DX003 (ip), vehicle: saline) was 103 % of control. For the same compound, the T/C (dose: 12.5 mg/kg/injection, schedule: Q04DX003 (ip), vehicle: water) was 101 % of control, the T/C (dose: 25.0 mg/kg/injection, schedule: Q04DX003 (ip), vehicle: saline) was 100 % of control and the T/C (dose: 25.0 mg/kg/injection, schedule: Q04DX003 (ip), vehicle: water) was 91 % of control. For the same compound, the T/C [2] was 103 % of control, the T/C (dose: 50.0 mg/kg/injection, schedule: Q04DX003 (ip), vehicle: water) was 94 % of control and the T/C [3] was 103 % of control. The T/C (dose: 100.0 mg/kg/injection, schedule: Q04DX003 (ip), vehicle: water) was 88 % of control, the T/C [4] was 86 % of control and the T/C (dose: 200.0 mg/kg/injection, schedule: Q04DX003 (ip), vehicle: water) was 88 % of control.
`CC1(C)C2CCC(I)(C2)C1O` (stereo unspecified) was tested, and the T/C [5] was 101 % of control, the T/C [6] was 101 % of control and the T/C [7] was 101 % of control.
For `c1ccc2c(CC3=NCCN3)cccc2c1`, the T/C [1] was 98 % of control, the T/C [5] was 88 % of control and the T/C [2] was 102 % of control.
With `Nc1ccn(C2OC(COP(=O)(O)O)C(O)C2O)c(=O)n1` (stereo unspecified) the T/C (dose: 4.0 mg/kg/injection, schedule: Q03HX024 (ip), vehicle: saline) was 337 % of control, the T/C (dose: 8.0 mg/kg/injection, schedule: Q01DX008 (ip), vehicle: saline) was 176 % of control and the T/C (dose: 8.0 mg/kg/injection, schedule: Q03HX024 (ip), vehicle: saline) was 302 % of control. For the same compound, the T/C (dose: 16.0 mg/kg/injection, schedule: Q01DX008 (ip), vehicle: saline) was 183 % of control, the T/C (dose: 16.0 mg/kg/injection, schedule: Q01DX009 (ip), vehicle: saline) was 185 % of control and the T/C (dose: 16.0 mg/kg/injection, schedule: Q03HX024 (ip), vehicle: saline) was 487 % of control. The T/C (dose: 16.0 mg/kg/injection, schedule: Q03HX024 (oral), vehicle: saline) was 228 % of control, the T/C (dose: 32.0 mg/kg/injection, schedule: Q01DX008 (ip), vehicle: saline) was 173 % of control and the T/C (dose: 32.0 mg/kg/injection, schedule: Q01DX009 (ip), vehicle: saline) was 215 % of control. The T/C (dose: 32.0 mg/kg/injection, schedule: Q03HX024 (ip), vehicle: saline) was 240 % of control, the T/C (dose: 32.0 mg/kg/injection, schedule: Q03HX024 (oral), vehicle: saline) was 266 % of control and the T/C (dose: 64.0 mg/kg/injection, schedule: Q01DX001 (ip), vehicle: saline) was 121 % of control. The T/C (dose: 64.0 mg/kg/injection, schedule: Q01DX008 (ip), vehicle: saline) was 155 % of control, the T/C (dose: 64.0 mg/kg/injection, schedule: Q01DX008 (oral), vehicle: saline) was 156 % of control and the T/C (dose: 64.0 mg/kg/injection, schedule: Q01DX009 (ip), vehicle: saline) was 212 % of control. The T/C (dose: 64.0 mg/kg/injection, schedule: Q03HX024 (oral), vehicle: saline) was 300 % of control, the T/C (dose: 128.0 mg/kg/injection, schedule: Q01DX001 (ip), vehicle: saline) was 117 % of control and the T/C (dose: 128.0 mg/kg/injection, schedule: Q01DX001 (oral), vehicle: saline) was 106 % of control. The T/C (dose: 128.0 mg/kg/injection, schedule: Q01DX008 (oral), vehicle: saline) was 167 % of control, the T/C (dose: 128.0 mg/kg/injection, schedule: Q01DX009 (oral), vehicle: saline) was 155 % of control and the T/C (dose: 128.0 mg/kg/injection, schedule: Q03HX024 (oral), vehicle: saline) was 155 % of control. The T/C (dose: 128.0 mg/kg/injection, schedule: Q04DX003 (oral), vehicle: saline) was 120 % of control, the T/C (dose: 256.0 mg/kg/injection, schedule: Q01DX001 (ip), vehicle: saline) was 112 % of control and the T/C (dose: 256.0 mg/kg/injection, schedule: Q01DX001 (oral), vehicle: saline) was 107 % of control. For the same compound, the T/C (dose: 256.0 mg/kg/injection, schedule: Q01DX009 (oral), vehicle: saline) was 172 % of control, the T/C (dose: 256.0 mg/kg/injection, schedule: Q04DX003 (oral), vehicle: saline) was 121 % of control and the T/C (dose: 512.0 mg/kg/injection, schedule: Q01DX001 (oral), vehicle: saline) was 109 % of control. The T/C (dose: 512.0 mg/kg/injection, schedule: Q01DX009 (oral), vehicle: saline) was 182 % of control, the T/C (dose: 1024.0 mg/kg/injection, schedule: Q01DX001 (oral), vehicle: saline) was 155 % of control and the T/C (dose: 1024.0 mg/kg/injection, schedule: Q01DX009 (oral), vehicle: saline) was 104 % of control. The T/C (dose: 1024.0 mg/kg/injection, schedule: Q04DX003 (oral), vehicle: saline) was 164 % of control.
With `CC1CC(C)(O)CC(C(O)CC2CC(=O)NC(=O)C2)C1=O` (stereo unspecified) the T/C (dose: 0.02 mg/kg/injection, schedule: Q01DX009 (ip), vehicle: saline) was 96 % of control and 102 % of control, the T/C (dose: 0.04 mg/kg/injection, schedule: Q01DX009 (ip), vehicle: saline) was 105 % of control and 107 % of control and the T/C (dose: 0.08 mg/kg/injection, schedule: Q01DX009 (ip), vehicle: saline) was 114 % of control. For the same compound, the T/C (dose: 0.16 mg/kg/injection, schedule: Q01DX009 (ip), vehicle: saline) was 117 % of control and 122 % of control.
`CN(C)N=C1CCCC1` was tested, and the T/C [5] was 101 % of control, the T/C (dose: 75.0 mg/kg/injection, schedule: Q01DX001 (ip), vehicle: saline) was 98 % of control and the T/C [6] was 95 % of control. The T/C (dose: 150.0 mg/kg/injection, schedule: Q01DX001 (ip), vehicle: saline) was 100 % of control and the T/C [7] was 100 % of control.
With `CO[Si](c1ccccc1)(c1ccccc1)c1cccc2ccccc12` the T/C (dose: 75.0 mg/kg/injection, schedule: Q04DX003 (ip), vehicle: saline) was 89 % of control, the T/C (dose: 150.0 mg/kg/injection, schedule: Q04DX003 (ip), vehicle: saline) was 91 % of control and the T/C (dose: 300.0 mg/kg/injection, schedule: Q04DX003 (ip), vehicle: saline) was 95 % of control.
In the case of `COC(=O)C(NC(C)=O)C(O)Cl` (stereo unspecified), the T/C [3] is reported as 102 % of control, the T/C [4] is reported as 100 % of control and the T/C (dose: 400.0 mg/kg/injection, schedule: Q04DX003 (ip), vehicle: saline) is reported as 98 % of control.
For `Cc1c(Cl)c(Cl)c(NS(=O)(=O)c2ccccc2)c(NS(=O)(=O)c2ccccc2)c1Cl`, the T/C (dose: 100.0 mg/kg/injection, schedule: Q04DX003 (ip), vehicle: Klucel (hydroxypropylcellulose) (HPC)) was 97 % of control, the T/C (dose: 200.0 mg/kg/injection, schedule: Q04DX003 (ip), vehicle: Klucel (hydroxypropylcellulose) (HPC)) was 104 % of control and the T/C (dose: 400.0 mg/kg/injection, schedule: Q04DX003 (ip), vehicle: Klucel (hydroxypropylcellulose) (HPC)) was 95 % of control.
For `O=C(NC1CCC(CC2CCCCC2)CC1)c1ccccc1` (stereo unspecified), the T/C [8] was 100 % of control, the T/C [9] was 93 % of control and the T/C [10] was 114 % of control.
For `CN(C)c1ccc(/C=N/NC(=O)CNC(=O)Nc2cccc(C(F)(F)F)c2)c(Cl)c1`, the T/C (dose: 50.0 mg/kg/injection, schedule: Q01DX009 (ip), vehicle: saline with Tween-80) was 88 % of control, the T/C [8] was 88 % of control and the T/C [9] was 88 % of control.
`[N-]=[N+]=CC(=O)NCC(=O)NNC(=O)c1ccccc1` was tested, and the T/C [8] was 105 % of control, the T/C [6] was 96 % of control and the T/C [9] was 107 % of control. The T/C [7] was 104 % of control, the T/C [10] was 108 % of control and the T/C [11] was 105 % of control.
With `CCOC(=O)CSC(=S)NC1CCCCC1` the T/C [6] was 101 % of control, the T/C [7] was 98 % of control and the T/C [11] was 95 % of control.
`COc1ccc(-n2c(=O)[nH]c3c(c2=O)C(c2ccc(Cl)cc2)C(C)(C)O3)cc1` (stereo unspecified) was tested, and the T/C (dose: 100.0 mg/kg/injection, schedule: Q04DX002 (ip), vehicle: saline with Tween-80) was 100 % of control, the T/C (dose: 200.0 mg/kg/injection, schedule: Q04DX002 (ip), vehicle: saline with Tween-80) was 95 % of control and the T/C (dose: 400.0 mg/kg/injection, schedule: Q04DX002 (ip), vehicle: saline with Tween-80) was 103 % of control.

— PubChem BioAssay AID256 (DTP/NCI, 2004)
